From US8362018B2, “Substituted imidazo[1,2-a]pyrazine compounds useful for the treatment of viral infections” (Biofocus DPI, Ltd., priority 2007, dated 2013)
pEC50: −log10 of the molar value.

Assays:
HCV replicon = experiment: anti-viral assay (EC50), Table 13; assay type: cell-based; details: Hepatitis C virus, anti-viral assays
Excerpt: The ability of a compound to inhibit HCV replication can be measured in vitro or using animal models using models and assays well known to those of skill in the art (e.g. Pietschmann et al, Clin Liver Dis. 7(1)c23-43, 2003). In vitro techniques for measuring the ability of a compound to inhibit HCV replication involve using HCV or an HCV replicon. Because HCV is difficult to grow in culture, particular in vitro techniques employ an HCV replicon.
An HCV replicon is an RNA molecule able to autonomously replicate in a cultured cell, such as Huh7. The HCV replicon expresses the HCV derived components of the replication machinery and contains cis-elements required for replication in a cultured cell. […]

[1] = cytotoxicity measurement (CC50), Table 13; assay type: cell-based; details: human, Huh7 cells

SMILES | pEC50 (HCV replicon) | CC50 [1] [µM]
Oc1ccc(-c2cnc3c(NCc4ccccc4Cl)nccn23)cc1 [Compound 37] | 4.70 to 6.00 | > 35
Cc1ccc(CNc2nccn3c(-c4ccc(O)cc4)cnc23)cc1 [Compound 38] | 4.70 to 6.00 | > 35
Oc1ccc(-c2cnc3c(NCc4ccc(C(F)(F)F)cc4)nccn23)cc1 [Compound 39] | 4.70 to 6.00 | < 35
COc1ccc(CNc2nccn3c(-c4ccc(O)cc4)cnc23)cc1 [Compound 40] | 4.70 to 6.00 | > 35
Cc1cc(-c2cnc3c(NCc4ccc(S(N)(=O)=O)cc4)nccn23)cc(C)c1O [Compound 41] | 4.70 to 6.00 | < 35
N#Cc1ccc(CNc2nccn3c(-c4ccc(O)cc4)cnc23)cc1 [Compound 42] | 4.70 to 6.00 | < 35
COc1ccc(-c2cnc3c(NCCS(N)(=O)=O)nccn23)cc1OC [Compound 43] | < 4.70 | > 35
COc1ccc(-c2cnc3c(NCc4cccc(Cl)c4)nccn23)cc1 [Compound 44] | 4.70 to 6.00 | < 35
NS(=O)(=O)c1ccc(CNc2nccn3c(-c4ccc(CO)s4)cnc23)cc1 [Compound 45] | 4.70 to 6.00 | > 35
NS(=O)(=O)c1ccc(CNc2nccn3c(-c4ccc(CO)o4)cnc23)cc1 [Compound 46] | 4.70 to 6.00 | > 35
OCc1ccc(CNc2nccn3c(-c4ccc(O)cc4)cnc23)cc1 [Compound 47] | 4.70 to 6.00 | < 35
NC(=O)c1ccc(CNc2nccn3c(-c4ccc(O)cc4)cnc23)cc1 [Compound 48] | 4.70 to 6.00 | > 35
CNC(=O)c1ccc(CNc2nccn3c(-c4ccc(O)cc4)cnc23)cc1 [Compound 49] | 4.70 to 6.00 | < 35
Nc1ccc(-c2cnc3c(NCc4ccc(S(N)(=O)=O)cc4)nccn23)cc1 [Compound 50] | 4.70 to 6.00 | > 35
N#Cc1cc(-c2cnc3c(NCc4ccc(S(N)(=O)=O)cc4)nccn23)ccc1O [Compound 51] | < 4.70 | > 35
O=C(O)c1ccc(CNc2nccn3c(-c4ccc(O)cc4)cnc23)cc1 [Compound 52] | < 4.70 | > 35
NS(=O)(=O)c1ccc(CNc2nccn3c(-c4ccc(O)c([N+](=O)[O-])c4)cnc23)cc1 [Compound 54] | 4.70 to 6.00 | > 35
COc1ccc2cc(-c3cnc4c(NCc5ccc(S(N)(=O)=O)cc5)nccn34)ccc2c1 [Compound 55] | 4.70 to 6.00 | < 35

SMILES | pEC50 (HCV replicon) | CC50 [1] [µM]
COc1cc(-c2cnc3c(NCc4cccc(S(N)(=O)=O)c4)nccn23)ccc1O [Compound 56] | > 6.00 | < 35
NS(=O)(=O)c1cccc(CNc2nccn3c(-c4ccc(O)c(F)c4)cnc23)c1 [Compound 57] | > 6.00 | > 35
Oc1ccc(-c2cnc3c(NCc4cccnc4)nccn23)cc1 [Compound 58] | 4.70 to 6.00 | < 35
Oc1ccc(-c2cnc3c(NCc4cccs4)nccn23)cc1 [Compound 59] | 4.70 to 6.00 | < 35
COc1cc(CNc2nccn3c(-c4ccc(O)cc4)cnc23)cc(OC)c1OC [Compound 60] | 4.70 to 6.00 | < 35
Oc1ccc(-c2cnc3c(NCc4ccc5c(c4)OCO5)nccn23)cc1 [Compound 61] | 4.70 to 6.00 | < 35
COc1ccc(-c2cnc3c(NCCc4ccncc4)nccn23)cc1OC [Compound 62] | 4.70 to 6.00 | < 35
CN1CCN(c2ccc(-c3cnc4c(Nc5cccc(OC(F)(F)C(F)F)c5)nccn34)cn2)CC1 [Compound 63] | 4.70 to 6.00 | < 35
COc1ccc(-c2cnc3c(Nc4ccc(N5CCOCC5)cc4)nccn23)cc1OC [Compound 64] | 4.70 to 6.00 | < 35
NS(=O)(=O)c1ccc(CNc2nccn3c(-c4cccc(O)c4)cnc23)cc1 [Compound 65] | 4.70 to 6.00 | < 35
COc1ccc(-c2cnc3c(NCc4cccs4)nccn23)cc1OC [Compound 66] | 4.70 to 6.00 | < 35
NS(=O)(=O)c1ccc(CNc2nccn3c(-c4cccc(F)c4)cnc23)cc1 [Compound 67] | 4.70 to 6.00 | < 35
COc1ccc(-c2cnc3c(NCc4ccco4)nccn23)cc1OC [Compound 68] | 4.70 to 6.00 | < 35
CC(C)c1ccc(Nc2nccn3c(-c4ccc(O)cc4)cnc23)cc1 [Compound 69] | 4.70 to 6.00 | < 35
CC(C)c1ccc(Nc2nccn3c(-c4cccc(NS(C)(=O)=O)c4)cnc23)cc1 [Compound 70] | 4.70 to 6.00 | < 35
CS(=O)(=O)Nc1cccc(-c2cnc3c(NCc4ccc(S(N)(=O)=O)cc4)nccn23)c1 [Compound 71] | 4.70 to 6.00 | < 35
CS(=O)(=O)Nc1cccc(-c2cnc3c(NCc4ccc5c(c4)OCO5)nccn23)c1 [Compound 73] | 4.70 to 6.00 | < 35
